How the values were obtained:
Assay in all cases: relative viability (nuclei count vs DMSO), 5 days (fraction); higher = more cells survive
TGX 221 + Phenformin = compound: CC1=CN2C(=O)C=C(N=C2C(=C1)C(C)NC3=CC=CC=C3)N4CCOCC4 [TGX 221] + N=C(N)NC(=N)NCCc1ccccc1 [Phenformin] (partner 250 µM)
Procedure, shortened: (§1)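 The day after seeding in 1536-well plates, lung cancer cell lines were treated by pin tool with a single drug, or with a fixed anchor-drug dose together with five library-drug doses (not always all listed) in √10 steps. After 5 days, a combined fix-and-stain solution (final 0.05% Triton X-100, 1% formaldehyde, 1 ug/ml Hoechst) was added. Nuclei counted on 4× images gave relative viability as treated counts over vehicle counts, reported as the median of duplicate plates.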

TGX 221 + Dasatinib = compound: CC1=CN2C(=O)C=C(N=C2C(=C1)C(C)NC3=CC=CC=C3)N4CCOCC4 [TGX 221] + Cc1nc(Nc2ncc(C(=O)Nc3c(C)cccc3Cl)s2)cc(N2CCN(CCO)CC2)n1 [Dasatinib] (partner 0.075 µM)
Procedure, shortened: as §1

TGX 221 + AZD7762 = compound: CC1=CN2C(=O)C=C(N=C2C(=C1)C(C)NC3=CC=CC=C3)N4CCOCC4 [TGX 221] + NC(=O)Nc1cc(-c2cccc(F)c2)sc1C(=O)N[C@H]1CCCNC1 [AZD7762] (partner 0.2 µM)
Procedure, shortened: as §1

[1] = compound: O=C(CCCCCCNC(=O)c1cnc(N(c2ccccc2)c2ccccc2)nc1)NO [Ricolinostat] + Nc1ncn([C@H]2C[C@H](O)[C@@H](CO)O2)c(=O)n1 [Decitabine] (partner 2 µM)
Procedure, shortened: as §1

Cell Line	relative viability (TGX 221 + Phenformin; first compound 0.08 µM)	relative viability (TGX 221 + Phenformin; first compound 0.253 µM)	relative viability (TGX 221 + Phenformin; first compound 0.8 µM)	relative viability (TGX 221 + Phenformin; first compound 2.53 µM)	relative viability (TGX 221 + Phenformin; first compound 8 µM)	relative viability (TGX 221 + Dasatinib; first compound 0.08 µM)	relative viability (TGX 221 + Dasatinib; first compound 0.253 µM)	relative viability (TGX 221 + Dasatinib; first compound 0.8 µM)	relative viability (TGX 221 + Dasatinib; first compound 2.53 µM)	relative viability (TGX 221 + Dasatinib; first compound 8 µM)	relative viability (TGX 221 + AZD7762; first compound 0.08 µM)	relative viability (TGX 221 + AZD7762; first compound 0.253 µM)	relative viability (TGX 221 + AZD7762; first compound 0.8 µM)	relative viability (TGX 221 + AZD7762; first compound 2.53 µM)	relative viability (TGX 221 + AZD7762; first compound 8 µM)	relative viability ([1]; first compound 0.08 µM)	relative viability ([1]; first compound 0.253 µM)	relative viability ([1]; first compound 0.8 µM)	relative viability ([1]; first compound 2.53 µM)
NCI-H647	0.457	0.414	0.405	0.427	0.457	0.189	0.145	0.15	0.163	0.136	0.324	0.448	0.407	0.278	0.328	0.365	0.317	0.31	0.312
NCI-H650	0.433	0.461	0.404	0.417	0.439	0.44	0.402	0.424	0.393	0.429	0.769	0.902	0.926	1.12	0.904	0.312	0.301	0.315	0.306
NCI-H727	0.635	0.621	0.537	0.486	0.51	0.287	0.436	0.412	0.409	0.439	0.492	0.688	0.695	0.592	0.546	0.807	0.934	0.957	0.952
NCI-H838	0.607	0.534	0.496	0.471	0.428	0.305	0.258	0.273	0.234	0.223	0.892	0.911	0.877	0.77	0.849	0.44	0.471	0.489	0.539
NCI-H1355	0.439	0.465	0.439	0.419	0.433	0.688	0.688	0.721	0.688	0.632	0.691	0.679	0.775	0.65	0.675	0.332	0.331	0.36	0.328
NCI-H1395	0.398	0.435	0.401	0.436	0.409	0.399	0.383	0.406	0.348	0.362	0.398	0.383	0.385	0.413	0.39		0.731	0.652	0.663
NCI-H1437	0.315	0.302	0.252	0.269	0.335	0.408	0.427	0.517	0.323	0.356	1.11	1.12	1.11	1.07	1.01	0.448	0.545	0.543	0.467
NCI-H1651	0.283	0.265	0.437	0.316	0.286	0.505	0.371	0.464	0.345	0.362	0.384	0.468	0.439	0.414	0.368	0.466	0.644	0.56	0.521
